Data taken from ChEMBL document CHEMBL1150635, “Cytotoxic pyrrolo- and furanoterpenoids from the sponge sarcotragus species” (2002).
Values after ≈ are worked out from the molar mass of the structure shown.

Experiments:
Assay type in all cases: functional
Conditions in all cases: read-out: ED50 (the source's name)
A549 = assay: Cytotoxicity against human A549 cells
SK-OV-3 = assay: Cytotoxicity against human SKOV3 cells
HCT-15 = assay: Cytotoxicity against human HCT15 cells
XF498 = assay: Cytotoxicity against human XF498 cells
SK-MEL-2 = assay: Cytotoxicity against human SK-MEL-2 cells

CC1=C(O)[C@H](C/C(C)=C\CC[C@H](C)/C=C/C=C(\C)CCCC2=CCN(CCC(C)C)C2=O)OC1=O [SARCOTRINE A]
EC50 (A549): 15.1 µg/mL (≈ 31.2 µM) | EC50 (SK-OV-3): 5.3 µg/mL (≈ 11 µM) | EC50 (HCT-15): 5 µg/mL (≈ 10.3 µM) | EC50 (XF498): 5.5 µg/mL (≈ 11.4 µM) | EC50 (SK-MEL-2): 4.1 µg/mL (≈ 8.48 µM)

CO[C@]1(Cc2ccoc2)C=C(CC/C=C(\C)CCC[C@@H](C)/C=C2\OC(=O)C(C)=C2O)C(=O)O1 [SARCOTIN G]
EC50 (A549): 9.1 µg/mL (≈ 19.9 µM) | EC50 (SK-OV-3): 10 µg/mL (≈ 21.9 µM) | EC50 (HCT-15): 7.3 µg/mL (≈ 16 µM) | EC50 (XF498): 7.6 µg/mL (≈ 16.6 µM) | EC50 (SK-MEL-2): 5.1 µg/mL (≈ 11.2 µM)

CC1=C(O)[C@H](C/C(C)=C\CC[C@H](C)/C=C/C=C(\C)CCCC2=CCN(CCc3ccccc3)C2=O)OC1=O [SARCOTRINE B]
EC50 (A549): 6.3 µg/mL (≈ 12.2 µM) | EC50 (SK-OV-3): 6.7 µg/mL (≈ 12.9 µM) | EC50 (HCT-15): 4.9 µg/mL (≈ 9.46 µM) | EC50 (XF498): 5.2 µg/mL (≈ 10 µM) | EC50 (SK-MEL-2): 4.3 µg/mL (≈ 8.31 µM)

COC(=O)C(O)C/C(C)=C\CC[C@H](C)/C=C/C=C(\C)CCCc1ccoc1 (stereo not given in full) [SARCOTIN J]
EC50 (A549): 18.1 µg/mL (≈ 48.3 µM) | EC50 (SK-OV-3): 10 µg/mL (≈ 26.7 µM) | EC50 (HCT-15): 8.7 µg/mL (≈ 23.2 µM) | EC50 (XF498): 24.3 µg/mL (≈ 64.9 µM) | EC50 (SK-MEL-2): 7.8 µg/mL (≈ 20.8 µM)

COC1C=C(CCC/C(C)=C/C=C/[C@@H](C)CC/C=C(/C)C[C@@H]2OC(=O)C(C)=C2O)C(=O)O1 (stereo not given in full) [SARCOTIN F]
EC50 (A549): 24.1 µg/mL (≈ 54.2 µM) | EC50 (SK-OV-3): 15.2 µg/mL (≈ 34.2 µM) | EC50 (HCT-15): 10.5 µg/mL (≈ 23.6 µM) | EC50 (XF498): 20.1 µg/mL (≈ 45.2 µM) | EC50 (SK-MEL-2): 7.6 µg/mL (≈ 17.1 µM)

CC1=C(O)[C@@H](C/C(C)=C\CC[C@H](C)/C=C/C=C(\C)CCCC2=CCN(CCC(C)C)C2=O)OC1=O [EPI-SARCOTRINE A]
EC50 (A549): 4.3 µg/mL (≈ 8.89 µM) | EC50 (SK-OV-3): 4 µg/mL (≈ 8.27 µM) | EC50 (HCT-15): 3.8 µg/mL (≈ 7.86 µM) | EC50 (XF498): 3.9 µg/mL (≈ 8.06 µM) | EC50 (SK-MEL-2): 3.4 µg/mL (≈ 7.03 µM)

C/C(=C/CC[C@@H](C)/C=C/C=C(\C)CCCc1ccoc1)CC(O)C(=O)[O-].[Na+] (stereo not given in full) [SARCOTIN I]
EC50 (A549): 24.8 µg/mL | EC50 (SK-OV-3): 23.3 µg/mL | EC50 (HCT-15): 23.7 µg/mL | EC50 (XF498): 25.9 µg/mL | EC50 (SK-MEL-2): 25.7 µg/mL

CCC(C)CN1CC=C(CCC/C(C)=C/C=C/[C@@H](C)CC/C=C(/C)C[C@@H]2OC(=O)C(C)=C2O)C1=O (stereo not given in full) [SARCOTRINE C]
EC50 (A549): 19 µg/mL (≈ 39.3 µM) | EC50 (SK-OV-3): 6.9 µg/mL (≈ 14.3 µM) | EC50 (HCT-15): 5.3 µg/mL (≈ 11 µM) | EC50 (XF498): 5.4 µg/mL (≈ 11.2 µM) | EC50 (SK-MEL-2): 3.8 µg/mL (≈ 7.86 µM)

CCC(C)CN1CC=C(CCC/C(C)=C/C=C/[C@@H](C)CC/C=C(/C)C[C@H]2OC(=O)C(C)=C2O)C1=O (stereo not given in full)
EC50 (A549): 27.1 µg/mL (≈ 56 µM) | EC50 (SK-OV-3): 26.8 µg/mL (≈ 55.4 µM) | EC50 (HCT-15): 22.3 µg/mL (≈ 46.1 µM) | EC50 (XF498): 25.2 µg/mL (≈ 52.1 µM) | EC50 (SK-MEL-2): 15.9 µg/mL (≈ 32.9 µM)

COC(/C=C/[C@@H](C)CC/C=C(/C)C[C@@H]1OC(=O)C(C)=C1O)C(C)(O)CCCc1ccoc1 (stereo not given in full) [SARCOTIN M]
EC50 (A549): 9 µg/mL (≈ 20.2 µM) | EC50 (SK-OV-3): 8.4 µg/mL (≈ 18.8 µM) | EC50 (HCT-15): 10.1 µg/mL (≈ 22.6 µM) | EC50 (XF498): 11.3 µg/mL (≈ 25.3 µM) | EC50 (SK-MEL-2): 9.9 µg/mL (≈ 22.2 µM)

CC1=C(O)[C@@H](C/C(C)=C\CC[C@H](C)/C=C/C=C(\C)CCCC2=CCN(CCc3ccccc3)C2=O)OC1=O [EPI-SARCOTRINE B]
EC50 (A549): 16.8 µg/mL (≈ 32.5 µM) | EC50 (SK-OV-3): 13.1 µg/mL (≈ 25.3 µM) | EC50 (HCT-15): 5.4 µg/mL (≈ 10.4 µM) | EC50 (XF498): 10.5 µg/mL (≈ 20.3 µM) | EC50 (SK-MEL-2): 4.8 µg/mL (≈ 9.27 µM)

CC1=C(O)[C@@H](C/C(C)=C\CC[C@H](C)/C=C/C=C(\C)CCCc2ccoc2)OC1=O [EPI-SARCOTIN A]
EC50 (A549): 12.3 µg/mL (≈ 30.9 µM) | EC50 (SK-OV-3): 9.6 µg/mL (≈ 24.1 µM) | EC50 (HCT-15): 6.5 µg/mL (≈ 16.3 µM) | EC50 (XF498): 9.8 µg/mL (≈ 24.6 µM) | EC50 (SK-MEL-2): 5.6 µg/mL (≈ 14.1 µM)

COc1cccc2c1C(=O)c1c(O)c3c(c(O)c1C2=O)C[C@@](O)(C(=O)CO)C[C@@H]3O[C@H]1C[C@H](N)[C@H](O)[C@H](C)O1 [DOXORUBICIN]
EC50 (A549): 0.02 µg/mL (≈ 0.0368 µM) | EC50 (SK-OV-3): 0.16 µg/mL (≈ 0.294 µM) | EC50 (HCT-15): 0.06 µg/mL (≈ 0.11 µM) | EC50 (XF498): 0.13 µg/mL (≈ 0.239 µM) | EC50 (SK-MEL-2): 0.02 µg/mL (≈ 0.0368 µM)

CC1=C(O)[C@H](C/C(C)=C\CC[C@H](C)/C=C/C=C(\C)CCCC2=CC(=O)N(CCC(C)C)C2)OC1=O [SARCOTRINE D]
EC50 (A549): > 30 µg/mL | EC50 (SK-OV-3): 25.9 µg/mL (≈ 53.5 µM) | EC50 (HCT-15): 21.6 µg/mL (≈ 44.7 µM) | EC50 (XF498): > 30 µg/mL | EC50 (SK-MEL-2): 13.2 µg/mL (≈ 27.3 µM)

CO[C@]1(Cc2ccoc2)C=C(CCC/C(C)=C\CC[C@@H](C)/C=C2\OC(=O)C(C)=C2O)C(=O)O1 [SARCOTIN H]
EC50 (A549): 6.7 µg/mL (≈ 14.7 µM) | EC50 (SK-OV-3): 6.8 µg/mL (≈ 14.9 µM) | EC50 (HCT-15): 6.1 µg/mL (≈ 13.4 µM) | EC50 (XF498): 6.3 µg/mL (≈ 13.8 µM) | EC50 (SK-MEL-2): 5.9 µg/mL (≈ 12.9 µM)
